Data: paper PMC6858373 (Scientific Reports, 2019)
“Also recorded” adds a separate entry of the source. Read-outs that look alike come from different tables or passages of the source.

Experiments:
[1] = biological target: T1, FGF14:Nav1.6 C-tail complex (Homo sapiens, UniProt Q92915+Q9UQD0); test: Split-luciferase complementation assay (LCA) in Clone V double stable HEK293 cells; assay type: cell-based; details: for Split Luciferase Assay % Lum Set 1 / Split Luciferase Assay Z-score Set 1: biological replicate Set 1; for Split Luciferase Assay % Lum Set 1 / Split Luciferase Assay %Lum Set 2: normalized to on-plate 0.3% DMSO controls (n=16 per plate); for Split Luciferase Assay %Lum Set 2 / Split Luciferase Assay Z-score Set 2: biological replicate Set 2; for Split Luciferase Assay Z-score Set 1 / Split Luciferase Assay Z-score Set 2: normalized to on-plate 0.3% DMSO controls; for Split Luciferase Assay %Lum Avg: average of Set 1 and Set 2, normalized to 0.3% DMSO controls
T1 construct: polymerase chain reaction (PCR) amplification of the FGF14 open reading frame (nt 1–855); C-terminal fragment of Nav1.6 (amino acids 1763–1976) fused with CD4ΔC-tail (amino acids 1–395); expressed in transfected cells

[2] = biological target: full-length P. pyralis luciferase (Photinus pyralis, UniProt P08659, K549A/L550V/N119G/N50D/S548I); assay type: cell-based; details: CC_NCI screening, normalized to on-plate 0.3% DMSO controls; for Luciferase Assay % Lum: full-length luciferase counter-screen luminescence; for Luciferase Assay Z-score: full-length luciferase counter-screen
[3] = CC_NCI screening, LCA luminescence

T1 sequence (Q92915 1-252 isoform Q92915-2): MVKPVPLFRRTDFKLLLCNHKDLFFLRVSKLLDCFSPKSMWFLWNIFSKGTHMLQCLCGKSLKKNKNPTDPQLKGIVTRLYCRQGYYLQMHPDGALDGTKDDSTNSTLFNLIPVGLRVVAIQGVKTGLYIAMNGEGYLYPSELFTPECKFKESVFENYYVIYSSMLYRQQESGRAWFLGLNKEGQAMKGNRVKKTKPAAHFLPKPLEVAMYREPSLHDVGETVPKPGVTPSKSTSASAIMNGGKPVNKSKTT
T1 sequence (Q9UQD0 1763-1976 limits assumed): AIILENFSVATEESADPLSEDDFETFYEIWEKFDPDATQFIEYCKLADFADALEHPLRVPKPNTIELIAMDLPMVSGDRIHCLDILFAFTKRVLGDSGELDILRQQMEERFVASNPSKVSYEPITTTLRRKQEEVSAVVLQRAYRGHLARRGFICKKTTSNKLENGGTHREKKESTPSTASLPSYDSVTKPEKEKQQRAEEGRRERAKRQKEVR
Chain of full-length P. pyralis luciferase (P08659 whole entry N50D/N119G/S548I/K549A/L550V, looked up): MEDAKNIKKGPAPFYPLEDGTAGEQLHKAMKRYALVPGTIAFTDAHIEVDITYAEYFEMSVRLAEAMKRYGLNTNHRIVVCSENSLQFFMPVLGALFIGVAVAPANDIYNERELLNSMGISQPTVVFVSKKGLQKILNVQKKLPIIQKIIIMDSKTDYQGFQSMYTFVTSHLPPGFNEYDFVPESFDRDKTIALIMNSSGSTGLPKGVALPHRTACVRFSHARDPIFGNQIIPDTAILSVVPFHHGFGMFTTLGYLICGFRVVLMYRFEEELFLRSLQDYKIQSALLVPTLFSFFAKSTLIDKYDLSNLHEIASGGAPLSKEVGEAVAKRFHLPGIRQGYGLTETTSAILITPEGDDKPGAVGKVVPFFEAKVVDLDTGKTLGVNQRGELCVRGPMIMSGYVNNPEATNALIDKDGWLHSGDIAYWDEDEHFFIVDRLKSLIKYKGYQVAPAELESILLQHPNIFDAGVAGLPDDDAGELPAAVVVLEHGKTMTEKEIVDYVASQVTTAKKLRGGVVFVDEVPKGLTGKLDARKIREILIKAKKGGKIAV

SMILES	Split Luciferase Assay % Lum Set 1 [1, 3] [%]	Split Luciferase Assay %Lum Set 2 [1, 3] [%]	Split Luciferase Assay Z-score Set 1 ([1]; CC_NCI screening, LCA)	Split Luciferase Assay Z-score Set 2 ([1]; CC_NCI screening, LCA)	Split Luciferase Assay %Lum Avg ([1]; CC_NCI screening) [%]	Luciferase Assay % Lum [2] [%]	Luciferase Assay Z-score [2]	Toxicity Assay % Fluor (Clone V cells; human, 16 h, 30 µM) [%]	Toxicity Assay Z-score (Clone V cells; human, 16 h, 30 µM)	Toxicity Assay % Fluor (Clone V cells) [%]	Toxicity Assay Z-score (Clone V cells)	other results
COC(=O)c1ccc2c(c1)NC(=O)/C2=C(\Nc1ccc(N(C)C(=O)CN2CCN(C)CC2)cc1)c1ccccc1 [BIBF-1120]	119.91	123.80	1.61	1.94	121.85	102.06	0.26	89.46	-1.47			
COc1ccc(Cl)cc1[C@]1(F)C(=O)Nc2cc(C(F)(F)F)ccc21 [BMS 204352]	10.11	17.69	-7.26	-6.70	13.90	36.55	-8.12	103.30	0.46			
Cc1cc(N2CCOCC2)cc2[nH]c(-c3c(NC[C@@H](O)c4cccc(Cl)c4)cc[nH]c3=O)nc12 [BMS-536924]	56.86	40.57	-3.49	-4.84	48.71	93.73	-0.80			86.04	-1.95	
CC(C)C[C@H](NC(=O)[C@H](Cc1ccccc1)NC(=O)c1cnccn1)B(O)O [BORTEZOMIB]	55.77	84.27	-3.57	-1.28	70.02	88.79	-1.44	89.20	-1.51			
NC(=O)c1ccc(I)c([N+](=O)[O-])c1 [BSI-201]	102.51	112.35	0.20	1.01	107.43	101.73	0.22	93.94	-0.85			
O=C(Nc1cccc(Nc2ncc(Br)c(NCCc3cnc[nH]3)n2)c1)N1CCCC1 [BX 912, reference compound]	35.11	40.57	-5.24	-4.84	37.84	85.82	-1.82			106.22	0.87	Z-score (LCA primary screening) ([1]; 30 µM, 384-well, average of primary screening (n = 2), vs on-plate 0.3% DMSO): −5.04; dose-response behavior of repurchased compounds ([1]; 10-point dose response 0.25-50 µM, Clone V cells): counter acting activity as a function of dosage; also recorded: act as enhancers at lower concentrations; IMin (% Luminescence) ([1]; antagonists, Clone V cells, 384-well, normalized to DMSO): 37.84 % Luminescence; action toward the FGF14:Nav1.6 C-tail interaction ([1]; dose-dependency validation using fresh compound samples): acted as antagonists; IC50 ([1]; estimated, 8-point dose response 0.25-30 µM, n = 4 per concentration, library compounds, read-out: IC50): 9.23 µM; IC50 ([1]; repurchased compounds, 10-point dose response 0.25-50 µM, n = 8 per concentration, Clone V cells, 384-well, read-out: in-cell IC50): 6.8 µM
Cl.Cn1c(CCCC(=O)O)nc2cc(N(CCCl)CCCl)ccc21 [Bendamustine hydrochloride]	111.21	127.96	0.91	2.27	119.58	101.61	0.21			87.62	-1.73	
CC(C)C[C@H](NC(=O)[C@H](Cc1ccccc1)NC(=O)c1cnccn1)B(O)O [Bortezomib]	89.47	117.56	-0.85	1.43	103.51	83.42	-2.12			93.30	-0.94	
COc1cc(Nc2c(C#N)cnc3cc(OCCCN4CCN(C)CC4)c(OC)cc23)c(Cl)cc1Cl [Bosutinib]	10.11	17.69	-7.26	-6.70	13.90	70.20	-3.82			75.29	-3.45	
Cc1cc2c(F)c(Oc3ncnn4cc(OC[C@@H](C)O)c(C)c34)ccc2[nH]1 [Brivanib]	34.03	35.37	-5.33	-5.26	34.70	64.23	-4.58	92.51	-1.05			
C=CC(=O)Nc1cc2c(Nc3ccc(F)c(Cl)c3)ncnc2cc1OCCCN1CCOCC1 [CANERTINIB]	28.59	34.33	-5.77	-5.34	31.46	50.65	-6.32	84.09	-2.22			
COc1cc2c(Oc3ccc4[nH]c(C)cc4c3F)ncnc2cc1OCCCN1CCCC1 [CEDIRANIB]	69.90	57.22	-2.43	-3.48	63.56	80.88	-2.45	86.10	-1.94			
CN1CCN(c2ccc3nc(-c4c(N)c5c(F)cccc5[nH]c4=O)[nH]c3c2)CC1 [CHIR 258]	66.64	66.58	-2.70	-2.72	66.61	93.31	-0.86	81.15	-2.64			
c1cc(-c2cnn3cc(-c4ccc(OCCN5CCCCC5)cc4)cnc23)ccn1 [COMPOUND C]												Split Luciferase Assay Z-score Set 1 ([1]; CC_NCI screening): 3.01; Split Luciferase Assay Z-score Set 2 ([1]; CC_NCI screening): 1.26; Split Luciferase Assay %Lum Set 2 ([1]; CC_NCI screening): 115.47%; Split Luciferase Assay %Lum Avg [1]: 126.39%; Luciferase Assay % Lum (full-length luciferase counter-screen) [2]: 104.57%; Luciferase Assay Z-score (full-length luciferase counter-screen) [2]: 0.59; Toxicity Assay % Fluor (CTB cell viability fluorescence) (Clone V cells): 115.42%; Toxicity Assay Z-score (CTB cell viability) (Clone V cells): 2.16
